Source: publication PMC4419590 (ChemMedChem, 2014)

How the values were obtained:
HIV-1MDR/C(X4) = assay: microbe, parasite or virus in culture; assay type: cell-based; settings: for fold change of EC50 compared to wild-type HIV-1ERS104pre: number in parentheses
[1] = tested on: HIV-1ERS104pre (wild-type X4); assay: Antiviral activity in PHA-PBMs, p24 Gag production, wild-type clinical isolate; assay type: cell-based
HIV-1MDR/G(X4) = assay: microbe, parasite or virus in culture; assay type: cell-based; settings: for fold change of EC50 compared to wild-type HIV-1ERS104pre: number in parentheses
HIV-1MDR/JSL(R5) = assay: microbe, parasite or virus in culture; assay type: cell-based; settings: for fold change of EC50 compared to wild-type HIV-1ERS104pre: number in parentheses
HIV-1MDR/TM(X4) = assay: microbe, parasite or virus in culture; assay type: cell-based; settings: for fold change of EC50 compared to wild-type HIV-1ERS104pre: number in parentheses
HIV-1LAI = assay: Antiviral activity in MT-2 cells exposed to HIV-1LAI, MTT assay; assay type: cell-based
HIV-1MDR/MM(R5) = assay: microbe, parasite or virus in culture; assay type: cell-based; settings: for fold change of EC50 compared to wild-type HIV-1ERS104pre: number in parentheses
[2] = tested on: in vitro BBB model (rat astrocytes, pericytes and monkey endothelial cells)
[3] = tested on: MT-2 human T-lymphoid cells
HIV-1MDR/B(X4) = assay: microbe, parasite or virus in culture; assay type: cell-based; settings: for fold change of EC50 compared to wild-type HIV-1ERS104pre: number in parentheses
[4] = In vitro blood-brain-barrier model, triple co-culture drug transport assay; settings: rat, monkey
[5] = tested on: panel of six multidrug resistant clinical HIV-1 variants; assay: microbe, parasite or virus in culture; assay type: cell-based; settings: Human immunodeficiency virus 1, read-out: EC50 range across the panel
[6] = PHA-PBMs, p24 Gag production, mean ± 1 SD
[7] = Human immunodeficiency virus 1, T-lymphoid, in Homo sapiens

Row | Compound | EC50 (HIV-1MDR/C(X4); [6]) | fold change of EC50 compared to wild-type HIV-1ERS104pre (HIV-1MDR/C(X4)) | EC50 [1, 6] | EC50 (HIV-1MDR/G(X4); [6]) | fold change of EC50 compared to wild-type HIV-1ERS104pre (HIV-1MDR/G(X4)) | fold change of EC50 compared to wild-type HIV-1ERS104pre (HIV-1MDR/JSL(R5)) | EC50 (HIV-1MDR/TM(X4); [6]) | fold change of EC50 compared to wild-type HIV-1ERS104pre (HIV-1MDR/TM(X4)) | EC50 (HIV-1MDR/MM(R5); [6]) | fold change of EC50 compared to wild-type HIV-1ERS104pre (HIV-1MDR/MM(R5)) | Papp (apparent permeability coefficient) [2] | CC50 [3] | EC50 (HIV-1MDR/B(X4); [6]) | fold change of EC50 compared to wild-type HIV-1ERS104pre (HIV-1MDR/B(X4)) | EC50 (HIV-1LAI; [7]) | EC50 (HIV-1MDR/C(X4); Human immunodeficiency virus 1) | EC50 (HIV-1MDR/G(X4); Human immunodeficiency virus 1) | EC50 (HIV-1MDR/JSL(R5); Human immunodeficiency virus 1) | EC50 (HIV-1MDR/MM(R5); Human immunodeficiency virus 1) | other results
1 | CC(C)CN(C[C@@H](O)[C@H](Cc1ccccc1)NC(=O)O[C@H]1CO[C@H]2OCC(F)(F)[C@H]21)S(=O)(=O)c1ccc(N)cc1 [Inhibitor 4] | 2 ± 1 nM | 1 | 2.7 ± 0.3 nM | 4 ± 1 nM | 1 | 1 | 4 ± 1 nM | 2 | 20 ± 0.2 nM | 7 | 60.84 ± 3.97 10^−6 cm/s | 37000 nM | 11 ± 1 nM | 3 |  |  |  |  |  | EC50 (HIV-1LAI; MT-2 human T-lymphoid cells exposed to HIVLAI): 3 nM
2 | CC(C)(C)NC(=O)[C@@H]1C[C@@H]2CCCC[C@@H]2CN1C[C@@H](O)[C@H](Cc1ccccc1)NC(=O)[C@H](CC(N)=O)NC(=O)c1ccc2ccccc2n1 [saquinavir] |  |  |  |  |  |  |  |  |  |  |  |  |  |  | 21 nM |  |  |  |  | 
3 | CC(C)CN(C[C@@H](O)[C@H](Cc1ccccc1)NC(=O)O[C@H]1CO[C@H]2OCC[C@H]21)S(=O)(=O)c1ccc(N)cc1 [Darunavir, darunavir, reference compound] |  |  |  |  |  |  |  |  |  |  |  |  |  |  | 5 nM | 5 ± 1 nM | 14 ± 9 nM | 10 ± 1 nM | 25 ± 2 nM | EC50 ([1]; Human immunodeficiency virus 1): 4 ± 1 nM; Papp at 30 min, 100 μM [4]: 9.32 ± 2.25 ×10⁻⁶ cm/s; EC50 (HIV-1MDR/TM(X4); Human immunodeficiency virus 1): 30 ± 10 nM
4 | CC(C)CN(C[C@@H](O)[C@H](Cc1ccccc1)NC(=O)O[C@H]1CCOC1)S(=O)(=O)c1ccc(N)cc1 [APV, amprenavir, reference compound] |  | 7 |  |  | 11 | 9 |  | 12 |  | 22 |  |  |  | 15 |  | 210 ± 20 nM | 310 ± 80 nM | 270 ± 10 nM | 630 ± 9 nM | EC50 [5]: 210 to 630 nM; EC50 (HIV-1MDR/B(X4); Human immunodeficiency virus 1): 490 ± 50 nM
5 | COc1ccc(S(=O)(=O)N(CC(C)C)C[C@@H](O)[C@H](Cc2ccccc2)NC(=O)OC2CO[C@H]3OCC(F)(F)[C@@H]23)cc1 (stereo partly drawn) [Inhibitor 3] | 2 ± 1 nM | 1 | 2.3 ± 0.1 nM | 4 ± 1 nM | 2 | 1 | 4 ± 1 nM | 2 | 21 ± 4 nM | 10 | 50.38 ± 10.61 10^−6 cm/s | 17500 nM | 14 ± 1 nM | 7 |  |  |  |  |  | EC50 (HIV-1MDR/JSL(R5); [6]): 2 ± 1 nM
